{
  "source": "paper PMC4525288",
  "about": "“Structures of FolT in substrate-bound and substrate-released conformations reveal a gating mechanism for ECF transporters” (Nature Communications, 2015)",
  "key": {"EfFolT [1]": {"target": "T1, EfFolT (Enterococcus faecalis, UniProt Q837A3)", "T1 construct": "gene EF_0940; full-length S component without ECF module; N-terminal His6 tag (pET28a, NdeI/XhoI), E. coli BL21(DE3), detergent-purified", "T1 sequence (Q837A3 1-179)": "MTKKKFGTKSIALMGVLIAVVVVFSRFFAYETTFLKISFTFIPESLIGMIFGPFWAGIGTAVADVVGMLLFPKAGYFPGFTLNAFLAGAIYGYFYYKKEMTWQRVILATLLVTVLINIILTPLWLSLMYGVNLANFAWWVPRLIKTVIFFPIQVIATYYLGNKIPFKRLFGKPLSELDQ", "assay": "isothermal titration calorimetry; crystal structure […] A", "type": "binding", "settings": "read-out: Dissociation constant/KD"}, "EfFolT [2]": {"target": "T2, EfFolT (Enterococcus faecalis, UniProt Q837A3, Y129A)", "T2 construct": "gene EF_0940", "assay": "biochemical"}, "EfFolT [3]": {"target": "T3, EfFolT (Enterococcus faecalis, UniProt Q837A3, K145A)", "T3 construct": "gene EF_0940", "assay": "biochemical"}, "EfFolT [4]": {"target": "T4, EfFolT (Enterococcus faecalis, UniProt Q837A3, N117A)", "T4 construct": "gene EF_0940", "assay": "biochemical"}, "EfFolT [5]": {"target": "T5, EfFolT (Enterococcus faecalis, UniProt Q837A3, F80W)", "T5 construct": "gene EF_0940", "assay": "biochemical"}, "EfFolT [6]": {"target": "T6, EfFolT (Enterococcus faecalis, UniProt Q837A3, K36R)", "T6 construct": "gene EF_0940", "assay": "biochemical"}, "EfFolT [7]": {"target": "T7, EfFolT (Enterococcus faecalis, UniProt Q837A3, T81A)", "T7 construct": "gene EF_0940", "assay": "biochemical"}, "EfFolT [8]": {"target": "T8, EfFolT (Enterococcus faecalis, UniProt Q837A3, K145T)", "T8 construct": "gene EF_0940", "assay": "biochemical"}, "EfFolT [9]": {"target": "T9, EfFolT (Enterococcus faecalis, UniProt Q837A3, K36A)", "T9 construct": "gene EF_0940", "assay": "biochemical"}, "EfFolT [10]": {"target": "T10, EfFolT (Enterococcus faecalis, UniProt Q837A3, T121A)", "T10 construct": "gene EF_0940", "assay": "biochemical"}, "EfFolT [11]": {"target": "T11, EfFolT (Enterococcus faecalis, UniProt Q837A3, R26A)", "T11 construct": "gene EF_0940", "assay": "biochemical"}},
  "data": [
    {"smiles": "Nc1nc2ncc(CNc3ccc(C(=O)N[C@@H](CCC(=O)O)C(=O)O)cc3)nc2c(=O)[nH]1", "note": "[folate]", "values": [
      {"measurement": "Kd", "setting": "EfFolT [1]", "value": "29.8 ± 4.7", "unit": "nM"},
      {"measurement": "Kd", "setting": "EfFolT [2]", "value": "635 ± 33.6", "unit": "nM"},
      {"measurement": "Kd", "setting": "EfFolT [3]", "value": "3300 ± 198", "unit": "nM"},
      {"measurement": "Kd", "setting": "EfFolT [4]", "value": "68.6 ± 6.4", "unit": "nM"},
      {"measurement": "Kd", "setting": "EfFolT [5]", "value": "499 ± 25.8", "unit": "nM"},
      {"measurement": "Kd", "setting": "EfFolT [6]", "value": "91.5 ± 7.5", "unit": "nM"},
      {"measurement": "Kd", "setting": "EfFolT [7]", "value": "813 ± 162", "unit": "nM"},
      {"measurement": "Kd", "setting": "EfFolT [8]", "value": 3690, "unit": "nM"},
      {"measurement": "Kd", "setting": "EfFolT [9]", "value": 5400, "unit": "nM"},
      {"measurement": "Kd", "setting": "EfFolT [10]", "value": "288 ± 21.1", "unit": "nM"},
      {"measurement": "Kd", "setting": "EfFolT [11]", "value": "252 ± 22", "unit": "nM"}
    ]}
  ]
}
